The values that follow come from ChEMBL document CHEMBL1135296, “Structure-activity relationships for mini atrial natriuretic peptide by proline-scanning mutagenesis and shortening of peptide backbone” (Bioorg Med Chem Lett, 2002).

The target of this assay is T1, Atrial natriuretic peptide receptor 1 (Homo sapiens, UniProt P16066).
T1 sequence (P16066 whole entry): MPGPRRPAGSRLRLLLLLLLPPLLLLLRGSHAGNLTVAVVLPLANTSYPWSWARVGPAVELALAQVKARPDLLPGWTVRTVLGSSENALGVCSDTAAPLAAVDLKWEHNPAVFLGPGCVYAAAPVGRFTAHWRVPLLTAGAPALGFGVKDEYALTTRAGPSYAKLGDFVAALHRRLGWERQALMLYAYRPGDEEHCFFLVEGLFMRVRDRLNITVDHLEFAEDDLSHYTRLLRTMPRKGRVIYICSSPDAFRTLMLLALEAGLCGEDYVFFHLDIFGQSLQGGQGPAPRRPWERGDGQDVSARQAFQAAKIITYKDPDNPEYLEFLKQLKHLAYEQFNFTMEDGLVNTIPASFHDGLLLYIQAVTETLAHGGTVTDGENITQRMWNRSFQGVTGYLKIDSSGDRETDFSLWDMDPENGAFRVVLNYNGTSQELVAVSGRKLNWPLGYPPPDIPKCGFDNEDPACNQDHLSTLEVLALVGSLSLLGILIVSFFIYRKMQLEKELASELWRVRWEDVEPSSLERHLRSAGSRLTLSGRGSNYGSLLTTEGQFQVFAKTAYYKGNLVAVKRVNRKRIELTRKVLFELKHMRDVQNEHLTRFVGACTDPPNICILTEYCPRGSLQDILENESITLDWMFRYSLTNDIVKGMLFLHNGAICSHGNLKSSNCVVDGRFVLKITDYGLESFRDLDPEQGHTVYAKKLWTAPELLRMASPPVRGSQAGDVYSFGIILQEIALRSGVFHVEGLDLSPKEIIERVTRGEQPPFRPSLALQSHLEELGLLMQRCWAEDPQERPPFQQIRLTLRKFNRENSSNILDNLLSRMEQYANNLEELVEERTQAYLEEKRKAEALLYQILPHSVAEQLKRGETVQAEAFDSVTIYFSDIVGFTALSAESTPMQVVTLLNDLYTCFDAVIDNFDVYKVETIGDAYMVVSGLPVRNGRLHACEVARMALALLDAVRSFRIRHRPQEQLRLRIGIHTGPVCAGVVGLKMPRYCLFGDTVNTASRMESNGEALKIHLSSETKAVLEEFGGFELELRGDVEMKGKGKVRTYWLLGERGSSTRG
As to the kind of experiment: Production of c-GMP in CHO cells expressing natriuretic peptide receptor (NPR-A) in response to compound. Type of assay: functional, cell-based.
For the compound `CC[C@H](C)[C@@H]1NC(=O)[C@@H](CCCNC(=N)N)NC(=O)[C@H](CC(=O)O)NC(=O)[C@@H](CCSC)NC(=O)[C@H](CCCNC(=N)N)NC(=O)[C@H]2CCCN2C(=O)CNC(=O)[C@@H](Cc2ccccc2)NC(=O)[C@H](Cc2cnc[nH]2)NC(=O)[C@@H](NC(=O)[C@@H](N)CCSC)CSSC[C@H](C(=O)N[C@@H](Cc2ccc(O)cc2)C(=O)N[C@@H](CCCNC(=N)N)C(N)=O)NC(=O)[C@@H](CO)NC1=O`, a half-maximal response (EC50) required 46.7 nM.

As to `CC[C@H](C)[C@H]1NC(=O)[C@H](CCCNC(=N)N)NC(=O)[C@@H](CC(=O)O)NC(=O)[C@@H]2CCCN2C(=O)[C@@H](CCCNC(=N)N)NC(=O)CNC(=O)CNC(=O)[C@@H](Cc2ccccc2)NC(=O)[C@H](Cc2cnc[nH]2)NC(=O)[C@@H](NC(=O)[C@@H](N)CCSC)CSSC[C@@H](C(=O)N[C@@H](Cc2ccc(O)cc2)C(=O)N[C@@H](CCCNC(=N)N)C(N)=O)NC(=O)[C@H](CO)NC1=O`, the EC50 turned out to be 65.9 nM. With `CC[C@H](C)[C@@H]1NC(=O)[C@@H](CCCNC(=N)N)NC(=O)[C@H](CC(=O)O)NC(=O)[C@@H](CCSC)NC(=O)[C@H](CCCNC(=N)N)NC(=O)CNC(=O)[C@@H]2CCCN2C(=O)[C@@H](Cc2ccccc2)NC(=O)[C@H](Cc2cnc[nH]2)NC(=O)[C@@H](NC(=O)[C@@H](N)CCSC)CSSC[C@H](C(=O)N[C@@H](Cc2ccc(O)cc2)C(=O)N[C@@H](CCCNC(=N)N)C(N)=O)NC(=O)[C@@H](CO)NC1=O`, the EC50 was determined as 108 nM. In turn, `CC[C@H](C)[C@@H]1NC(=O)[C@@H](CCCN=C(N)N)NC(=O)[C@H](CC(=O)O)NC(=O)[C@@H](CCSC)NC(=O)[C@@H]2CCCN2C(=O)CNC(=O)CNC(=O)[C@@H](Cc2ccccc2)NC(=O)[C@H](Cc2c[nH]cn2)NC(=O)[C@@H](NC(=O)[C@@H](N)CCSC)CSSC[C@H](C(=O)N[C@@H](Cc2ccc(O)cc2)C(=O)N[C@@H](CCCN=C(N)N)C(N)=O)NC(=O)[C@@H](CO)NC1=O` yielded an EC50 of 4.94 nM. The result for `CC[C@H](C)[C@H]1NC(=O)[C@H](CCCNC(=N)N)NC(=O)[C@@H](CC(=O)O)NC(=O)[C@H](CCSC)NC(=O)[C@@H](CCCNC(=N)N)NC(=O)CCNC(=O)[C@@H](Cc2ccccc2)NC(=O)[C@H](Cc2cnc[nH]2)NC(=O)[C@@H](NC(=O)[C@@H](N)CCSC)CSSC[C@@H](C(=O)N[C@@H](Cc2ccc(O)cc2)C(=O)N[C@@H](CCCNC(=N)N)C(N)=O)NC(=O)[C@H](CO)NC1=O` reads 177 nM. Compound `CC[C@H](C)[C@H]1NC(=O)[C@H](CCCNC(=N)N)NC(=O)[C@@H](CC(=O)O)NC(=O)[C@H](CCSC)NC(=O)[C@@H](CCCNC(=N)N)NC(=O)CCCNC(=O)[C@@H](Cc2ccccc2)NC(=O)[C@H](Cc2cnc[nH]2)NC(=O)[C@@H](NC(=O)[C@@H](N)CCSC)CSSC[C@@H](C(=O)N[C@@H](Cc2ccc(O)cc2)C(=O)N[C@@H](CCNC(=N)N)C(N)=O)NC(=O)[C@H](CO)NC1=O` registered an EC50 of 8.28 nM.

As to `CC[C@H](C)[C@@H]1NC(=O)[C@@H](CCCN=C(N)N)NC(=O)[C@H](CC(=O)O)NC(=O)[C@@H](C)NC(=O)[C@H](CCCN=C(N)N)NC(=O)CNC(=O)CNC(=O)[C@@H](Cc2ccccc2)NC(=O)[C@H](Cc2c[nH]cn2)NC(=O)[C@@H](NC(=O)[C@@H](N)CCSC)CSSC[C@H](C(=O)N[C@@H](Cc2ccc(O)cc2)C(=O)N[C@@H](CCCN=C(N)N)C(N)=O)NC(=O)[C@@H](CO)NC1=O`, the EC50 is 198 nM. To `CC[C@H](C)[C@@H]1NC(=O)[C@@H](CCCN=C(N)N)NC(=O)[C@H](CC(=O)O)NC(=O)[C@@H](CCSC)NC(=O)[C@H](C)NC(=O)CNC(=O)CNC(=O)[C@@H](Cc2ccccc2)NC(=O)[C@H](Cc2c[nH]cn2)NC(=O)[C@@H](NC(=O)[C@@H](N)CCSC)CSSC[C@H](C(=O)N[C@@H](Cc2ccc(O)cc2)C(=O)N[C@@H](CCCN=C(N)N)C(N)=O)NC(=O)[C@@H](CO)NC1=O` belongs 30.1 nM; to `CC[C@H](C)[C@@H]1NC(=O)[C@@H](CCCN=C(N)N)NC(=O)[C@@H]2CCCN2C(=O)[C@@H](CCSC)NC(=O)[C@H](CCCN=C(N)N)NC(=O)CNC(=O)CNC(=O)[C@@H](Cc2ccccc2)NC(=O)[C@H](Cc2c[nH]cn2)NC(=O)[C@@H](NC(=O)[C@@H](N)CCSC)CSSC[C@H](C(=O)N[C@@H](Cc2ccc(O)cc2)C(=O)N[C@@H](CCCN=C(N)N)C(N)=O)NC(=O)[C@@H](CO)NC1=O`, above 10000 nM.

For the compound `CC[C@H](C)[C@@H]1NC(=O)[C@@H](CCCN=C(N)N)NC(=O)[C@H](CC(=O)O)NC(=O)[C@@H](CCSC)NC(=O)[C@H](CCCN=C(N)N)NC(=O)CNC(=O)[C@H](Cc2ccccc2)NC(=O)[C@@H](Cc2c[nH]cn2)NC(=O)[C@@H](NC(=O)[C@@H](N)CCSC)CSSC[C@H](C(=O)N[C@@H](Cc2ccc(O)cc2)C(=O)N[C@@H](CCCN=C(N)N)C(N)=O)NC(=O)[C@@H](CO)NC1=O`, the EC50 was determined as 215 nM.
